Laboratory results: patent publication US20150045291A1, “LIPOPEPTIDE CONJUGATES COMPRISING SPHINGOLIPID AND HIV GP41 DERIVED PEPTIDES” (priority 2012, published 2015)
Read-outs that look alike come from different tables or passages of the source. Starred links: 1 amine or outer side, 2 acyl side, 3 side chain; linkers in the order of their positions; H or OH if unused. Residues, ends and D or L forms follow the SMILES beside them. Groups on a side chain read outwards from the residue. *: point of attachment. Sphinganine = CCCCCCCCCCCCCCC[C@@H](O)[C@H](CO)N*; CO = O=C([*:1])[*:2]

Test system: fully infectious HIV-1 HXB2
Conditions: for IC90: read-out: IC90 (nM), […]
[1] = fully infectious HIV-1 system (Table 2)
[2] = read-out: IC50 (inhibitory concentration at 50% infectivity), TZM-bl cells, fully contagious HXB2 HIV-1
[3] = read-out: IC50 (nM), […], fully infectious HIV-1 system (Table 3)
[4] = fully infectious HIV-1 system (Table 3)

Q: Which IC50 [1] does the source give for `CCCCCCCCCCCCCCC[C@@H](O)[C@H](CO)NC(=O)NCCCC[C@H](NC(=O)[C@H](CC(C)C)NC(=O)[C@@H](NC(=O)[C@H](CCCNC(=N)N)NC(=O)[C@H](C)NC(=O)[C@H](CC(C)C)NC(=O)[C@H](CC(C)C)NC(=O)[C@H](CCC(N)=O)NC(=O)[C@H](CCCCN)NC(=O)[C@@H](NC(=O)[C@H](CCCCN)NC(=O)[C@H](Cc1c[nH]c2ccccc12)NC(=O)[C@H](CCC(N)=O)NC(=O)[C@@H](NC(=O)[C@H](CC(C)C)NC(=O)[C@H](CCC(N)=O)NC(=O)[C@H](CC(C)C)NC(=O)[C@@H](N)CCC(=O)O)[C@@H](C)O)[C@@H](C)CC)[C@@H](C)CC)C(N)=O` [N17mut (e, g) K-sphing, ELQLTQWKIKQLLARILK-Sphinganine] (H-ELQLTQWKIKQLLARILK([CO-Sphinganine])-NH2) here?
A: Its IC50 is 120 ± 40 nM.

Q: What does the source list for `CCCCCCCCCCCCCCC[C@@H](O)[C@H](CO)NC(=O)NCCCC[C@H](NC(=O)[C@H](CC(C)C)NC(=O)[C@@H](NC(=O)[C@H](CCCNC(=N)N)NC(=O)[C@H](C)NC(=O)[C@H](CCC(N)=O)NC(=O)[C@H](CC(C)C)NC(=O)[C@H](CCC(N)=O)NC(=O)[C@H](CCCCN)NC(=O)[C@@H](NC(=O)CNC(=O)[C@H](Cc1c[nH]c2ccccc12)NC(=O)[C@@H](NC(=O)[C@@H](NC(=O)[C@H](CC(C)C)NC(=O)[C@H](CCC(N)=O)NC(=O)[C@H](CC(C)C)NC(=O)[C@@H](N)CC(C)C)[C@@H](C)O)C(C)C)[C@@H](C)CC)[C@@H](C)CC)C(N)=O` [N17K-sphing, LLQLTVWGIKQLQARILK-Sphinganine] (H-LLQLTVWGIKQLQARILK([CO-Sphinganine])-NH2)?
A: IC50 [1]: 291 ± 102 nM; IC50 [2]: 287 nM

Q: Which “Effect on viral infectivity / fusion (in words)” value (at / up to 1 μM) does the source give for `CCCCCCCCCCCCCCC[C@@H](O)[C@@H](N)CO` [sphinganine, D-erythro-Dihydrosphingosine, reference compound] here?
A: The value was “did not affect viral infectivity”.

Q: Which IC50 [2] does the source give for `CCCCCCCCCCCCCCC[C@@H](O)[C@H](CO)NC(=O)NCCCC[C@H](NC(=O)[C@H](CC(N)=O)NC(=O)[C@H](CCCCN)NC(=O)[C@H](CCC(=O)O)NC(=O)[C@H](CCC(N)=O)NC(=O)[C@H](CCC(N)=O)NC(=O)[C@H](CC(N)=O)NC(=O)[C@H](CCC(N)=O)NC(=O)[C@H](CO)NC(=O)[C@H](CCC(=O)O)NC(=O)[C@H](CCC(=O)O)NC(=O)[C@@H](NC(=O)[C@H](CC(C)C)NC(=O)[C@H](CO)NC(=O)[C@H](Cc1c[nH]cn1)NC(=O)[C@@H](NC(=O)[C@H](CC(C)C)NC(=O)[C@H](CO)NC(=O)[C@@H](NC(=O)[C@@H](N)Cc1ccc(O)cc1)[C@@H](C)O)[C@@H](C)CC)[C@@H](C)CC)C(N)=O` [DP19K-sphing] (H-YTSLIHSLIEESQNQQEKNK([CO-Sphinganine])-NH2) here?
A: The IC50 was 350 nM.

Q: Which IC50 [3] does the source give for `CC[C@H](C)[C@H](NC(=O)[C@H](CCC(=O)O)NC(=O)[C@H](CCCNC(=N)N)NC(=O)[C@H](CC(=O)O)NC(=O)[C@H](Cc1c[nH]c2ccccc12)NC(=O)[C@H](CCC(=O)O)NC(=O)[C@H](CCSC)NC(=O)[C@H](Cc1c[nH]c2ccccc12)NC(=O)[C@@H](NC(=O)[C@@H](N)[C@@H](C)O)[C@@H](C)O)C(=O)N[C@@H](CC(N)=O)C(=O)N[C@@H](CC(N)=O)C(=O)N[C@@H](Cc1ccc(O)cc1)C(=O)N[C@H](C(=O)N[C@@H](CCCCN)C(N)=O)[C@@H](C)O` [PBDK, TTWMEWDREINNYTK] (H-TTWMEWDREINNYTK-NH2; N-terminus and C-terminus assumed) here?
A: The IC50 was 5350 ± 1700 nM.

Q: And the IC90 [4]?
A: The IC90 was over 10000 nM.

Q: `CC[C@H](C)[C@H](NC(=O)[C@H](CC(C)C)NC(=O)[C@H](CO)NC(=O)[C@H](Cc1c[nH]cn1)NC(=O)[C@@H](NC(=O)[C@H](CC(C)C)NC(=O)[C@H](CO)NC(=O)[C@@H](NC(=O)[C@@H](N)Cc1ccc(O)cc1)[C@@H](C)O)[C@@H](C)CC)C(=O)N[C@@H](CCC(=O)O)C(=O)N[C@@H](CCC(=O)O)C(=O)N[C@@H](CO)C(=O)N[C@@H](CCC(N)=O)C(=O)N[C@@H](CC(N)=O)C(=O)N[C@@H](CCC(N)=O)C(=O)N[C@@H](CCC(N)=O)C(=O)N[C@@H](CCC(=O)O)C(=O)N[C@@H](CCCCN)C(=O)N[C@@H](CC(N)=O)C(=O)N[C@@H](CCCCN)C(N)=O` [DP19K] (H-YTSLIHSLIEESQNQQEKNK-NH2; C-terminus assumed) was tested. Which IC50 [1] did it give?
A: The IC50 was 2210 ± 507 nM.

Q: With `CCCCCCCCCCCCCCC[C@@H](O)[C@H](CO)NC(=O)NCCCC[C@H](NC(=O)[C@@H](NC(=O)[C@H](Cc1ccc(O)cc1)NC(=O)[C@H](CC(N)=O)NC(=O)[C@H](CC(N)=O)NC(=O)[C@@H](NC(=O)[C@H](CCC(=O)O)NC(=O)[C@H](CCCNC(=N)N)NC(=O)[C@H](CC(=O)O)NC(=O)[C@H](Cc1c[nH]c2ccccc12)NC(=O)[C@H](CCC(=O)O)NC(=O)[C@H](CCSC)NC(=O)[C@H](Cc1c[nH]c2ccccc12)NC(=O)[C@@H](NC(=O)[C@@H](N)[C@@H](C)O)[C@@H](C)O)[C@@H](C)CC)[C@@H](C)O)C(N)=O` [PBDK-Sphing, TTWMEWDREINNYTK-Sphinganine] (H-TTWMEWDREINNYTK([CO-Sphinganine])-NH2; N-terminus assumed) as the molecule, how does the IC50 [3] read?
A: Its IC50 is 467 ± 140 nM.

Q: What about the IC90 [4] of the same molecule?
A: The IC90 was 1090 ± 100 nM.

Q: Which IC50 [1] does the source give for `CC[C@H](C)[C@H](NC(=O)[C@H](CCC(N)=O)NC(=O)[C@H](CC(C)C)NC(=O)[C@H](Cc1c[nH]c2ccccc12)NC(=O)[C@H](CC(C)C)NC(=O)[C@@H](NC(=O)[C@H](CCC(N)=O)NC(=O)[C@H](CC(C)C)NC(=O)[C@H](CCCNC(=N)N)NC(=O)[C@H](C)NC(=O)[C@@H](NC(=O)[C@H](CCCCN)NC(=O)[C@@H](N)CCC(N)=O)[C@@H](C)CC)[C@@H](C)O)C(=O)NCC(=O)N[C@H](C(=O)N[C@@H](CC(C)C)C(=O)N[C@@H](CC(C)C)C(N)=O)C(C)C` [N17 scrambled, QKIARLQTLWLQIGVLL] (H-QKIARLQTLWLQIGVLL-NH2; C-terminus assumed) here?
A: The IC50 was over 4000 nM.

Q: What does the source list for `CCCCCCCCCCCCCCC[C@@H](O)[C@H](CO)NC(=O)NCCCC[C@H](NC(=O)[C@@H](NC(=O)[C@H](CCC(=O)O)NC(=O)[C@H](CCCNC(=N)N)NC(=O)[C@H](CC(=O)O)NC(=O)[C@H](Cc1c[nH]c2ccccc12)NC(=O)[C@H](CCC(=O)O)NC(=O)[C@H](CCSC)NC(=O)[C@H](Cc1c[nH]c2ccccc12)NC(=O)[C@@H](N)[C@@H](C)O)[C@@H](C)CC)C(N)=O` [Truncated-Sphing, TWMEWDREIK-Sphinganine] (H-TWMEWDREIK([CO-Sphinganine])-NH2; N-terminus assumed)?
A: IC50 [3]: 1330 ± 270 nM; IC90 [4]: 2480 ± 320 nM

Q: `CCCCCCCCCCCCCCC[C@@H](O)[C@H](CO)NC(=O)N[C@@H](CC(C)C)C(=O)N[C@@H](CCC(=O)O)C(=O)N[C@@H](CCC(N)=O)C(=O)N[C@@H](CC(C)C)C(=O)N[C@@H](CO)C(=O)N[C@H](C(=O)N[C@@H](Cc1c[nH]c2ccccc12)C(=O)NCC(=O)N[C@@H](CO)C(=O)N[C@@H](CCCCN)C(=O)N[C@@H](CCC(N)=O)C(=O)N[C@@H](CC(N)=O)C(=O)N[C@@H](CCC(N)=O)C(=O)N[C@@H](C)C(=O)N[C@@H](CCCNC(=N)N)C(=O)N[C@@H](CCCNC(=N)N)C(=O)N[C@@H](CC(C)C)C(N)=O)C(C)C` [Sphing-N17mut (a, d)] ({Sphinganine-CO}-LEQLSVWGSKQNQARRL-NH2) was tested. Which IC50 [1] did it give?
A: Its IC50 is over 4000 nM.
